Measured values from article PMC4635624, “In vitro and in vivo single-agent efficacy of checkpoint kinase inhibition in acute lymphoblastic leukemia” (Journal of Hematology & Oncology, 2015).

What was measured:
Assay type in all cases: cell-based, human
[1] = tested on: normal bone marrow mononuclear cells; experiment: Viability of primary cultures of normal cells; conditions: 24 h of exposure at 100, 500, and 1000 nM
Procedure: The efficacy of PF-00477736 was confirmed in primary blast cells from 14 newly diagnosed cases including ten BCR-ABL1-positive (71 %) cases and four BCR-ABL1-negative ALL cases (29 %). Leukemic cells were incubated with increasing concentrations of drug (0.1, 0.5, and 1 μM) for 24 h.
Normal bone marrow progenitors were harvested from bone marrow aspirations performed in lymphoma patients undergoing initial staging procedures, which then resulted negative for lymphoma infiltration. Normal peripheral blood progenitors were harvested from healthy donors.
In order to assess the cell viability after treatment with PF-00477736 (Pfizer), ALL cell lines were seeded in 96-well plates at 50,000 cell/100 μl/well with increasing concentrations of drug (0.005–2 μM) for 24 and 48 h and incubated at 37 °C. Cell viability was assessed by adding WST-1 reagent (Roche Applied Science, Basel, Switzerland) to the culture medium at 1:10 dilution. Cells were incubated at 37 °C, and the optical density was measured by microplate ELISA reader at λ = 450 after 3 h. […] In ex-vivo primary leukemia cells, the effects on cell viability were assessed by counting viable and non-viable cell numbers by the trypan blue dye exclusion method. […] Cellular viability was calculated as a percentage of the viable cells compared to the untreated controls (DMSO 0.1 %).

[2] = tested on: Chk1 pathway in normal bone marrow mononuclear cells; experiment: Western blot analysis in normal cells; conditions: in contrast to leukemia cells
[3] = tested on: NALM-6 cell line; experiment: Cell cycle analysis (propidium iodide); conditions: 0.1, 0.5, 1 μM, 24 h; reduced percentage of cells in G1 phase
Procedure: (§1) The effect of the inhibition of Chk1 pathway on cell cycle progression was evaluated in RPMI-8402, BV-173, SUP-B15, and NALM-6 cell lines. Cells were incubated with increasing concentrations of PF-00477736 for 6 and 24 h and then stained with propidium iodide to quantify the DNA amount.
(§2) In order to evaluate the effect of PF-00477736 on cell cycle progression, NALM-6, SUPB-15, RPMI-8402, and BV-173 cell lines were seeded in a 24-well plate at 500,000 cell/1 ml with increasing concentrations of PF-00477736 (0.1, 0.5, and 1 μM for NALM-6 and SUP-B15; 0.05, 0.1, and 0.2 μM for RPMI-8402 and BV-173). After 6 and 24 h, cells were harvested and fixed overnight using ethanol at 70 %. Then, cells were stained using PI/RNase Staining Buffer according to the manufacturer’s instruction (BD Pharmingen), and the cell cycle profile was detected using FACSCanto II instrument. The percentage of the different cell cycle phases was performed using the DNA cell-cycle analysis software for flow cytometry data, ModFit LT (Verity).

[4] = tested on: RPMI-8402, BV-173, and SUP-B15 cell lines; experiment: Cell cycle analysis (propidium iodide); conditions: increasing concentrations, 24 h; concomitant increment of cell debris
Procedure: as §1, §2

[5] = tested on: B- and T-ALL cell lines; experiment: Annexin V/PI staining of apoptotic cells; conditions: 0.1, 0.5, 1 μM (0.05, 0.1, 0.2 μM for BV-173 and RPMI-8402), 24 and 48 h; proportional to dose and exposure time
Procedure: In order to assess whether cytotoxicity was correlated to increased susceptibility to apoptosis, B-/T-ALL cell lines were incubated with increasing concentrations of drug (0.1, 0.5, and 1 μM and 0.05, 0.1, and 0.2 μM only for BV-173 and RPMI-8402, respectively) for 24 and 48 h. […] The induction of apoptosis by PF-00477736 was also assessed by the detection of poly (ADP-ribose) polymerase (PARP) cleavage by Western blot analysis.
According to the WST-1 results, three different increasing concentrations of PF-00477736 were used to treat leukemia cells lines in order to detect and discriminate apoptotic, necrotic and dead cells. Cell lines were seeded in 12-well plates at 500,000 cell/1 ml with increasing concentrations of drug (0.1, 0.5 and 1 μM and 0.05, 0.1 and 0.2 μM only for BV-173 and RPMI-8402) for 24 and 48 h and incubated at 37 °C. Following the treatment, cells were harvested and stained with Annexin V/PI according to the manufacturer’s instruction (Roche). The percentage of Annexin V-PI-positive cells was determined within 1 × 10^4 cells of the population by flow cytometry (FACSCanto II, BD Biosciences Pharmingen, San Jose, CA, USA). The mean percentage of Annexin V-PI-positive cells and standard error measurement was calculated from at least two separate experiments.

For `Cn1cc(-c2[nH]c3cc(NC(=O)[C@H](N)C4CCCCC4)cc4c3c2C=NNC4=O)cn1` [PF-00477736], which cell viability [1] is on record?
The cell viability was “did not reduce viability”.

And the “phosphorylation of Chk1 (Ser345), Cdc25c (Ser216), Cdc2 (Tyr 15) and phospho-H2A.X” value [2]?
Its value is “did not induce protein phosphorylation changes”.

And the cell cycle profile [3]?
Its cell cycle profile is “progressively increased the percentage of cells in G2/M phase”.

And the cell cycle profile [4]?
Its cell cycle profile is “progressive reduction of the number of cells in S and G2/M phase”.

And the “apoptosis (Annexin V/PI-positive cells)” value [5]?
The value was “significant increase of apoptosis”.
